Laboratory results as given in patent US10695406B2, “Modulation of cellular stress using a B-cell oxidative and/or endoplasmic reticulum stress inhibitor and a targeting agent” (THE UNIVERSITY OF QUEENSLAND, priority 2014, dated 2020).

Experiments:
[1] = test system: MIN6N8 murine β-cells; experiment: ER stress (ERAI reporter of Xbp1-splicing / Xbp1 splicing) in MIN6N8 β-cells; assay type: cell-based; parameters: % Inhibition of ER Stress (Xbp1 splicing): concentration or dose not given beside the values; conditions: for induction of ER stress (ERAI reporter of Xbp1-splicing): 50 ng/mL cytokines, 24 hour
Experimental: MIN6N8 cells are maintained in line with standard protocols. Cells are transfected with either the ERAI reporter plasmid (F-XBP1ΔDBD-Venus), or the ATF6-GFP plasmid (ADGENE), using LIPFECTAMINE 2000 according to the manufacturer's instructions.
On induction of ER stress, splicing of […] mRNA by IRE1a results in the translation of Venus, but not an active form of XBP1. Fluorescence was measured (excitation: 485 nm; emission: 520 nm) using the POLARstar Omega plate reader and cells were treated 48 h after transfection. The results are normalized with Gapdh expression as fold of vehicle-treated control (Con) cells.
Activation of ATF6 was assessed as follows: the area in pixels per square millimeter co-stained ATF6 and DAPI (blue and green), and total ATF6 staining (green) was determined in 5 fields of view for each section (n=6 for each condition) using IMAGEJ software version 1.45s. Data are presented as the percentage of ATF6 and DAPI co-fluorescence to the total ATF6 fluorescence. Phosphorylation of Ser-51 of eiF2 α was determined by an AlphaScreen assay as per the manufacturer's instructions (PERKIN-ELMER). The Griess reagent method was performed according to the manufacturer's instructions (MOLECULAR PROBES) to assess the intracellular levels of nitric oxide. 5-(and -6-)-carboxy-2,7-dichlorofluorescein diacetate (DCFDA) assay was used to determine the intracellular levels of H2O2 as previously described (Sakon et al., 2003). Cells were treated with glucose or recombinant cytokines at the concentrations indicated in the figure legends, or with 5 μM thapsigargin (SIGMA-ALDRICH) or 10 μg/mL tunicamycin (SIGMA-ALDRICH) or 0.1-0.5 mM Palmitate (SIGMA-ALDRICH) for the times indicated in the legends. ROS was […] using the dihydroethidium (DHE) fluorescent cell-permeable probe (SIGMA-ALDRICH). MIN6N8 cells plated at 2×10^6/mL were incubated with 3 μM DHE and subsequently treated with DMSO (control), 50 ng/mL IL-23 for 30 minutes±[…] IL-22 at the same time or 30 minutes prior to IL-23.
To inhibit transcription factors the following specific inhibitors (and concentrations) were used:
MIN6N8 cells were exposed to a panel of cytokines to determine the effect of each cytokine on ER stress. ER stress was measured using the above-described method. Specifically, the cells were exposed to either a 24 hour treatment of any one of […] glucose (hi glucose), 10 μM H2O2, 0.5 mM palmitic acid or 50 ng/mL cytokines; or a 6 hour treatment with 10 μg/mL tunicamycin or 5 μM thapsigargin.
Experiments to assess ER and/or oxidative stress, and methods of qRT-PCT and/or quantifying gene expression were performed as described for Example 1. Xbp1 splicing is assessed by qRT-PCR, with normalization versus Gapdh, and expression presented as fold of vehicle-treated control cells.

[2] = test system: Murine MIN6N8 cells; experiment: ERAI-sXBP1 reporter ER stress in MIN6N8 cells with 0.5 mM palmitate; assay type: cell-based; conditions: 24 hours
Experimental: Cell culture: Murine MIN6N8 cells were tested negative for mycoplasma. Cells were routinely cultured in phenol-red free DMEM (Life Technologies) containing 25 mM glucose (3.4 g/L sodium bicarbonate, 50 U/mL penicillin and streptomycin, 71.5 μM β-mercaptoethanol and 10% heat inactivated fetal bovine serum) and transferred to DMEM as above with 5.5 mM glucose 48 h prior to experimentation. Human LS174T cells were cultured in DMEM containing 10% heat-inactivated fetal bovine serum, 50 U mL^−1 penicillin and streptomycin.
ER Stress Measurement: MIN6N8 cells were transfected with the ERAI reporter plasmid (F-XBP1ΔDBD-venus, using Lipofectamine 2000 according to the manufacturer's instructions. For ERAI there was negligible fluorescence in the absence of ER stressors, but upon induction of ER stress, splicing of XBP1 mRNA by IRE1a results in the translation of Venus but not an active form of XBP1. Fluorescence was measured (excitation: 485 nm; emission: 520 nm) using a POLARstar Omega plate reader and cells were treated 48 h after transfection. […] After 24 h, ERAI-sXBP1 GFP reporter fluorescence was measured.

[3] = test system: STAT3 phosphorylation; experiment: pStat3 staining in pancreatic islets vs liver, intestine and skin; assay type: in vivo, C57BL/6 mice; conditions: 30 min
Experimental: Targeting to IL-22 to pancreas: Non-obese male C57BL/6 at 6-8 weeks of age. Each IL-22-GLP-1R ligand fusion protein or hIL-22 was administered i.p. at 256 ng/g of IL-22 and the molar equivalents for the individual fusion proteins (n=3 per regimen). IL-22-ScaB1 was administered at […]. Control mice received a PBS control i.p. injection only.
To assess in vivo activation of the IL-22 receptor signaling pathway, after 30 min the mice were sacrificed and the following tissues were snap frozen and sections were prepared for each mouse: pancreas, skin (ear, tail), colon (rolled), and liver. Sections were stained by immunofluorescence for phosphorylated STAT3 using the Phospho-Stat3 (Tyr705) (D3A7) antibody.

Molecule: CNC(=N)NCCC[C@H](N)C(=O)O [L-NMMA, N^G-Methyl-L-arginine]
- % Inhibition of ER Stress (Xbp1 splicing) ([1]; ER stress induced by IFNγ): 87%
- % Inhibition of ER Stress (Xbp1 splicing) ([1]; ER stress induced by IL-1β): 93%
- % Inhibition of ER Stress (Xbp1 splicing) ([1]; ER stress induced by IL-17A): 83%
- % Inhibition of ER Stress (Xbp1 splicing) ([1]; ER stress induced by IL-23): 78%
- % Inhibition of ER Stress (Xbp1 splicing) ([1]; ER stress induced by IL-24): 92%
- % Inhibition of ER Stress (Xbp1 splicing) ([1]; ER stress induced by IL-33): 90%
- % Inhibition of ER Stress (Xbp1 splicing) ([1]; ER stress induced by MIP-2α): 95%

Molecule: MIP-2α: ER stress-inducing chemokine
- induction of ER stress (ERAI reporter of Xbp1-splicing) [1]: lower stress response

Molecule: IL-17A: ER stress-inducing cytokine
- induction of ER stress (ERAI reporter of Xbp1-splicing) [1]: lower stress response

Molecule: N[C@@H](CCC(=O)N[C@@H](CS)C(=O)NCC(=O)O)C(=O)O [GSH, reduced glutathione]
- % Inhibition of ER Stress (Xbp1 splicing) ([1]; ER stress induced by IFNγ): 15%
- % Inhibition of ER Stress (Xbp1 splicing) ([1]; ER stress induced by IL-1β): 16%
- % Inhibition of ER Stress (Xbp1 splicing) ([1]; ER stress induced by IL-17A): 0%
- % Inhibition of ER Stress (Xbp1 splicing) ([1]; ER stress induced by IL-23): 87%
- % Inhibition of ER Stress (Xbp1 splicing) ([1]; ER stress induced by IL-24): 6%
- % Inhibition of ER Stress (Xbp1 splicing) ([1]; ER stress induced by IL-33): 13%
- % Inhibition of ER Stress (Xbp1 splicing) ([1]; ER stress induced by MIP-2α): 7%

Molecule: IL-1β: ER stress-inducing cytokine
- induction of ER stress (ERAI reporter of Xbp1-splicing) [1]: lower stress response

Molecule: superoxide dismutase [SOD1]
- % Inhibition of ER Stress (Xbp1 splicing) ([1]; ER stress induced by IFNγ): 74%
- % Inhibition of ER Stress (Xbp1 splicing) ([1]; ER stress induced by IL-1β): 96%
- % Inhibition of ER Stress (Xbp1 splicing) ([1]; ER stress induced by IL-17A): 65%
- % Inhibition of ER Stress (Xbp1 splicing) ([1]; ER stress induced by IL-23): 95%
- % Inhibition of ER Stress (Xbp1 splicing) ([1]; ER stress induced by IL-24): 59%
- % Inhibition of ER Stress (Xbp1 splicing) ([1]; ER stress induced by IL-33): 74%
- % Inhibition of ER Stress (Xbp1 splicing) ([1]; ER stress induced by MIP-2α): 88%

B1: IL-23: ER stress-inducing cytokine (protein, UniProt Q9NPF7 20-189; P29460 23-328, looked up)
Interleukin-23 subunit alpha: RAVPGGSSPAWTQCQQLSQKLCTLAWSAHPLVGHMDLREEGDEETTNDVPHIQCGDGCDPQGLRDNSQFCLQRIHQGLIFYEKLLGSDIFTGEPSLLPDSPVGQLHASLLGLSQLLQPEGHHWETQQIPSLSPSQPWQRLLLRFKILRSLQAFVAVAARVFAHGAATLSP
Interleukin-12 subunit beta: IWELKKDVYVVELDWYPDAPGEMVVLTCDTPEEDGITWTLDQSSEVLGSGKTLTIQVKEFGDAGQYTCHKGGEVLSHSLLLLHKKEDGIWSTDILKDQKEPKNKTFLRCEAKNYSGRFTCWWLTTISTDLTFSVKSSRGSSDPQGVTCGAATLSAERVRGDNKEYEYSVECQEDSACPAAEESLPIEVMVDAVHKLKYENYTSSFFIRDIIKPDPPKNLQLKPLKNSRQVEVSWEYPDTWSTPHSYFSLTFCVQVQGKSKREKKDRVFTDKTSATVICRKNASISVRAQDRYYSSSWSEWASVPCS
- induction of ER stress (ERAI reporter of Xbp1-splicing) [1]: potent inducers of ER stress

B2: IL-24: ER stress-inducing cytokine (protein, UniProt Q13007 52-206, looked up)
Interleukin-24: QEFHFGPCQVKGVVPQKLWEAFWAVKDTMQAQDNITSARLLQQEVLQNVSDAESCYLVHTLLEFYLKTVFKNYHNRTVEVRTLKSFSTLANNFVLIVSQLQPSQENEMFSIRDSAHRRFLLFRRAFKQLDVEAALTKALGEVDILLTWMQKFYKL
- induction of ER stress (ERAI reporter of Xbp1-splicing) [1]: potent inducers of ER stress

B3: IL-33: ER stress-inducing cytokine (protein, UniProt O95760 1-270, looked up)
Interleukin-33: MKPKMKYSTNKISTAKWKNTASKALCFKLGKSQQKAKEVCPMYFMKLRSGLMIKKEACYFRRETTKRPSLKTGRKHKRHLVLAACQQQSTVECFAFGISGVQKYTRALHDSSITGISPITEYLASLSTYNDQSITFALEDESYEIYVEDLKKDEKKDKVLLSYYESQHPSNESGDGVDGKMLMVTLSPTKDFWLHANNKEHSVELHKCEKPLPDQAFFVLHNMHSNCVSFECKTDPGVFIGVKDNHLALIKVDSSENLCTENILFKLSET
- induction of ER stress (ERAI reporter of Xbp1-splicing) [1]: potent inducers of ER stress

B4: IFN-γ: ER stress-inducing cytokine (protein, UniProt P01579 24-161, looked up)
Interferon gamma: QDPYVKEAENLKKYFNAGHSDVADNGTLFLGILKNWKEESDRKIMQSQIVSFYFKLFKNFKDDQSIQKSVETIKEDMNVKFFNSNKKKRDDFEKLTNYSVTDLNVQRKAIHELIQVMAELSPAAKTGKRKRSQMLFRG
- induction of ER stress (ERAI reporter of Xbp1-splicing) [1]: lower stress response

B5: IL-10: cytokine that inhibits ER stress (protein, UniProt P22301 19-178, looked up)
Interleukin-10: SPGQGTQSENSCTHFPGNLPNMLRDLRDAFSRVKTFFQMKDQLDNLLLKESLLEDFKGYLGCQALSEMIQFYLEEVMPQAENQDPDIKAHVNSLGENLKTLRLRLRRCHRFLPCENKSKAVEQVKNAFNKLQEKGIYKAMSEFDIFINYIEAYMTMKIRN
- inhibition of ER stress initiated by cytokines or tunicamycin ([1]; pair-wise combinations of cytokines): inhibit ER stress

B6: IL-22-ScaB1: IL-22-single chain antibody construct targeting a β-cell antigen; scFv-cytokine fusion protein with His- and myc-tag (protein)
chain: HHHHHHEVQLLESGGGLVQPGGSLRLSCAASGFTFSSYAMSWVRQAPGKGLEWVSSITAEGTHTWYADSVKGRFTISRDNSKNTLYLQMNSLRAEDTAVYYCAKTSYRFDYWGQGTLVTVSSGGGGSGGGGSGGGGSDIQMTQSPSSLSASVGDRVTITCRASQSISSYLNWYQQKPGKAPKLLIYKASRLQSGVPSRFSGSGSGTDFTLTISSLQPEDFATYYCQQKWDPPRTFGQGTKVEIKRSGGGGSAPISSHCRLDKSNFQQPYITNRTFMLAKEASLADNNTDVRLIGEKLFHGVSMSERCYLMKQVLNFTLEEVLFPQSDRFQPYMQEVVPFLARLSNRLSTCHIEGDDLHIQRNVQKLKDTVKKLGESGEIKAIGELDLLFMSLRNACIEQKLISEEDLN
modifications: His-ScaB1 scFv-IL22 human-myc
notes: IL-22-single chain antibody construct targeting a β-cell antigen; scFv-cytokine fusion protein with His- and myc-tag
- ER stress caused by the protein alone ([2]; 15.4 nM, no palmitate): did not cause ER stress
- potency compared to the native human IL-22 in reducing ER stress ([2]; 0.5 mM palmitate): < 50%
- protection from palmitate-induced ER stress ([2]; co-treated with 0.5 mM palmitate, increasing concentrations): reduced ER stress induced by palmitate
- pStat3 ratio pancreatic islets vs liver, skin or intestine relative to human IL-22 ([3]; 0.96 nmoles/g): not greater than for native human IL-22
- pStat3 ratio pancreatic islets vs intestine, fold change relative to human IL-22 ([3]; 15.4 nmoles/g): 420 fold
- pStat3 ratio pancreatic islets vs liver, fold change relative to human IL-22 ([3]; 15.4 nmoles/g): 120 fold
- pStat3 ratio pancreatic islets vs skin, fold change relative to human IL-22 ([3]; 15.4 nmoles/g): 110 fold
